From patent US10910084B2, “Method for modelling, optimizing, parameterizing, testing and validating a dynamic network with network perturbations” (Albert-Ludwigs-Universität Freiburg, priority 2011, dated 2021)

Columns and labels:
Format in all cases: cell-based
[1] = system: mTOR-pS2481 (mTORC2 readout) in HeLa cells; assay: mTOR-pS2481 immunoblot of whole cell lysates, HeLa cells starved and induced with aa/insulin
Method: (§1) Experiments were performed in particular in HeLa α Kyoto cells and C2C12 myoblasts. For inducible knock down of Raptor or TSC2, cells were transduced with lentivirus encoding the tetracycline-sensitive tTR-KRAB repressor and a DsRed reporter. Cells were subsequently transfected with lentivirus encoding the specific shRNA, and a GFP reporter, (pLVTH vector), both preferably under the control of tTR-KRAB. For lentivirus-mediated knock down of Rictor a pLKO.1-based short hairpin construct specific for Rictor (Addgene plasmid 1853), as well as a scrambled control sequence (Addgene plasmid 1864) can in particular be supplied from Addgene. HeLa cells were transfected with viral supernatant twice as described previously and harvested 60 hours after transfection.
For calibration data sets, in particular HeLa cells can be starved for serum and amino acids by exchanging standard growth medium for Hank's Buffered Salt Solution (HBSS) (PAN Biotech GmbH, Aidenbach, Germany) over night to inhibit mTOR pathway activity. After 16 hours of starvation, mTOR signaling was restimulated with DMEM containing amino acids and supplemented with 100 nM insulin (Sigma Aldrich, St. Louis, Mo., USA).
Gradual knockdowns of Raptor or TSC2 can preferably be established by induction with 5 μg/ml doxycycline (Calbiochem, Merck, Darmstadt, Germany) for 0, 1, 2, or 3 days. Cells can be starved for 16 hours in HBSS and mTOR signaling was induced with DMEM (PAA, Pasching, Austria) supplemented with 100 nM insulin. […] Wortmannin or LY294002 can in particular be added 30 min prior to and during the stimulation with DMEM supplemented 100 nM insulin. Cells can for example be washed once with PBS and lysed with TNE lysis buffer [50 mM Tris HCL pH8.0, 150 mM NaCl, 1% v/v TritonX-100 (Calbiochem, Merck, Darmstadt, Germany), Complete (Roche, Mannheim, Germany), Phosphatase Inhibitor Cocktail 2, Phosphatase Inhibitor Cocktail 3 (both Sigma Aldrich, St. Louis, Mo., USA)]. Protein concentrations can preferably be measured (Protein Assay Dye Reagent Concentrate, Bio-Rad, Hercules, Calif., USA) according to manufacturer's protocol. Concentrations can for example be adjusted with lysis buffer. […] Whole cell lysates can for example be analyzed using SDS-PAGE gels. […]
(§2) HRP can for example be detected with the ECL Western Blotting Substrate or the SuperSignal West Femto reagent [Pierce Biotechnology (Thermo Scientific, Rockford, Ill. USA)], and the emitted light can in particular be detected and quantified with a chemiluminescence imaging analyzer (LAS4000mini; Fujifilm, Tokyo, Japan). Obtained images can preferably be analyzed with Multi-Gauge version 3.0 software (Fujifilm, Tokyo, Japan). […]

Akt-pS473 in HeLa cells = assay: Akt-pS473 immunoblot of whole cell lysates, HeLa cells; conditions: HeLa cells starved, induced by aa/insulin for 30 and 50 min
Method: as §1, with “HeLa cells were transfected with viral supernatant twice as described previously and harvested 60 hours after transfection.” left out
(§3) Gradual knockdowns of Raptor or TSC2 can preferably be established by induction with 5 μg/ml doxycycline (Calbiochem, Merck, Darmstadt, Germany) for 0, 1, 2, or 3 days. […] Protein concentrations can preferably be measured (Protein Assay Dye Reagent Concentrate, Bio-Rad, Hercules, Calif., USA) according to manufacturer's protocol. […] Whole cell lysates can for example be analyzed using SDS-PAGE gels. […]
as §2, with “Japan).” for “Japan). Obtained images can preferably be analyzed with Multi-Gauge version 3.0 software (Fujifilm, Tokyo, Japan).”

[2] = system: p70-S6K-pT389 (mTORC1 readout) in HeLa cells; assay: p70-S6K-pT389 immunoblot of whole cell lysates, HeLa cells; conditions: quantitation of 3 experiments; 200 nM PP242; Rapamycin; * P<0.05
Method: as §1, with “HeLa cells were transfected with viral supernatant twice as described previously and harvested 60 hours after transfection.” left out
as §3
as §2, with “Japan).” for “Japan). Obtained images can preferably be analyzed with Multi-Gauge version 3.0 software (Fujifilm, Tokyo, Japan).”

[3] = system: mTOR-pS2481 associated with the immunoprecipitated mTORC2; assay: mTOR-pS2481 in mTORC2 immunoprecipitated with Sin1 antibody, HeLa cells; conditions: Sin1 immunoprecipitation
Method: Immunoprecipitations can in particular be performed as described elsewhere. […] Immunoprecipitations were performed with 5 μg/ml antibody [antibody recognizing Sin1, Raptor, or rabbit IgG (all Bethyl)] and with magnetic Dynabeads Protein G (Invitrogen). Gradual knockdowns of Raptor or TSC2 can preferably be established by induction with 5 μg/ml doxycycline (Calbiochem, Merck, Darmstadt, Germany) for 0, 1, 2, or 3 days. Cells can be starved for 16 hours in HBSS and mTOR signaling was induced with DMEM (PAA, Pasching, Austria) supplemented with 100 nM insulin. […] Wortmannin or LY294002 can in particular be added 30 min prior to and during the stimulation with DMEM supplemented 100 nM insulin. […] Protein concentrations can preferably be measured (Protein Assay Dye Reagent Concentrate, Bio-Rad, Hercules, Calif., USA) according to manufacturer's protocol. […] Whole cell lysates can for example be analyzed using SDS-PAGE gels. […] HRP can for example be detected with the ECL Western Blotting Substrate or the SuperSignal West Femto reagent [Pierce Biotechnology (Thermo Scientific, Rockford, Ill. USA)], and the emitted light can in particular be detected and quantified with a chemiluminescence imaging analyzer (LAS4000mini; Fujifilm, Tokyo, Japan). Obtained images can preferably be analyzed with Multi-Gauge version 3.0 software (Fujifilm, Tokyo, Japan). […]

[4] = system: mTOR-pS2481 in C2C12 cells; assay: mTOR-pS2481 immunoblot in C2C12 myoblasts; conditions: continuous presence of aa/insulin
Method: as §1, with “HeLa cells were transfected with viral supernatant twice as described previously and harvested 60 hours after transfection.” left out
as §3
as §2, with “Japan).” for “Japan). Obtained images can preferably be analyzed with Multi-Gauge version 3.0 software (Fujifilm, Tokyo, Japan).”

## O=c1cc(N2CCOCC2)oc2c(-c3ccccc3)cccc12 [LY294002]
[1]; HeLa cells (FIG. 10C)
  LY294002 concentrations at which mTORpS2481 was reduced: ≥ 1 µM

## COC[C@H]1OC(=O)c2coc3c2[C@@]1(C)C1=C(C3=O)[C@@H]2CCC(=O)[C@@]2(C)C[C@H]1OC(C)=O [Wortmannin]
[1]; HeLa cells starved, induced by aa/insulin for 30 and 50 min
  Wortmannin concentrations at which mTORpS2481 was inhibited: ≥ 20 nM
Akt-pS473 in HeLa cells
  Wortmannin concentration at which Akt-pS473 was already inhibited: 5 nM
  Wortmannin concentrations at which Akt-pS473 was strongly inhibited: ≥ 10 nM

## CC(C)n1nc(-c2cc3cc(O)ccc3[nH]2)c2c(N)ncnc21 [PP242]
[1]; HeLa cells, short-term treatment
  mTOR-pS2481 abundance: reduced the abundance of mTORpS2481 in a dose-dependent manner
[1]; quantitation of 3 experiments, 200 nM PP242, 100 nM Rapamycin, * P<0.05
  mTOR-pS2481 compared to DMSO-treated control, significance (FIG. 1E): significant
[2]
  p70-S6K-pT389 compared to DMSO-treated control, significance (FIG. 1D): significant
[3]
  mTOR-pS2481 associated with the immunoprecipitated mTORC2: significantly reduced
[4]
  amount of mTOR-pS2481: decreased
